Values of other authors as cited in patent publication US20070232589A1, “Pharmaceutical Composition And Method For Treating Neurodegenerative Disorders” (Myriad Genetics, Incorporated, priority 2004, published 2007).
Like-named read-outs stand apart in the source and are kept apart here.

Experiments:
[1] = clinical trial; rofecoxib 25 mg daily
[2] = in vivo excitotoxic model
[3] = patients having mild cognitive impairment
[4] = in vivo
Aβ42 [5] = conditions: transgenic mouse model
Aβ42 [6] = conditions: CHO cells
[7] = 50 mg and 100 mg doses, human subjects

COc1ccc2cc([C@H](C)C(=O)O)ccc2c1 [Naproxen]
efficacy for treating AD [1]: failed to show efficacy

CS(=O)(=O)c1ccc(C2=C(c3ccccc3)C(=O)OC2)cc1 [rofecoxib]
efficacy for treating AD [1]: failed to show efficacy | neuroprotection [2]: provides neuroprotection | prevention of development of Alzheimer's disease [3]: failed to prevent the development of Alzheimer's disease | patients who developed AD ([3]; placebo 4.5%): 6.4%

CC12CC3CC(C)(C1)CC(N)(C3)C2 [memantine]
efficacy in treating mild-to-moderate AD [4]: showed efficacy

C[C@@H](C(=O)O)c1ccc(-c2ccccc2)c(F)c1 [(R)-2-(2-fluoro-4-biphenylyl)propionic acid]
inhibition of COX activity (COX): negligibly inhibits COX activity | Aβ42 lowering (Aβ42 [5]): lower Aβ42 | Aβ42 lowering (Aβ42 [6]): lower Aβ42 | analgesic effect [7]: produced an analgesic effect
